From BindingDB's records for doi:10.1021/jm00168a028 (University of Minnesota, 1990)
Where a SMILES comes first, the peptide text is derived from it. [ ]: non-standard residue; d: D form. The star is where a group is joined. Tyr(Nα,Nα-allyl2) = C=CCN(CC=C)[C@@H](Cc1ccc(O)cc1)C(=O)*; Aib = CC(C)(N)C(=O)O

Tests used:
[1] = Binding affinity was measured by the displacement of [3H]- DADLE in guinea pig brain membrane of Opioid receptor delta 1
[2] = Binding affinity was measured by the displacement of [3H]- DADLE in guinea pig brain membrane of opioid receptor delta
[3] = Binding affinity was measured by the displacement of [3H]- DADLE in guinea pig brain membrane of Opioid receptor delta 1; remark: listed apart in the source

Structure (SMILES): CN1CC[C@]23c4c5ccc(O)c4O[C@H]2c2[nH]c4ccccc4c2C[C@@]3(O)[C@H]1C5
- Ki [1]: 0.7 nM

Structure (SMILES): COc1ccc2c3c1O[C@H]1c4[nH]c5ccccc5c4C[C@@]4(O)[C@@H](C2)N(CC2CC2)CC[C@]314 [22-cyclopropylmethyl-16-methoxy-(2S,13R)-14-oxa-11,22-diazaheptacyclo[13.9.1.01,13.02,21.04,12.05,10.019,25]pentacosa-4(12),5(10),6,8,15(25),16,18-heptaen-2-ol(HCl1.5H2O)]
- Ki [2]: 40 nM
- Ki [1]: 40 nM

Structure (SMILES): C=CCN(CC=C)[C@@H](Cc1ccc(O)cc1)C(=O)NC(C)(C)C(=O)NC(C)(C)C(=O)N[C@@H](Cc1ccccc1)C(=O)N[C@@H](CC(C)C)C(=O)O [ICI-174864] ({Tyr(Nα,Nα-allyl2)}-[Aib][Aib]FL-OH)
- Ki [3]: 35 nM
